Test [1] relates to U-87 MG. Kind of test: Antiproliferative activity against human U-87 MG cells assessed as suppression ratio at 50 uM by enzyme-linked immunosorbent assay relative to control. Type of test: functional, U-87MG ATCC.
The subject of test [2] is U-87 MG. Kind of test: Anti-tumor activity against human U87 MG cells assessed as inhibition rate at 140 uM by CCK-8 assay relative to control. Type of test: functional, U-87MG ATCC.
In test [3] the test system is U-87 MG. The experiment in a line: Antiproliferative activity against human U-87 MG cells assessed as suppression ratio at 5 uM by enzyme-linked immunosorbent assay relative to control. Type of test: functional, U-87MG ATCC.
Test [4] deals with SK-OV-3. Kind of test: Anti-tumor activity against human SK-OV-3 cells assessed as inhibition rate at 140 uM by CCK-8 assay relative to control. The class given is functional.
Test [5] relates to U-87 MG. Kind of test: Anti-tumor activity against human U87 MG cells by CCK-8 assay. Type of test: functional, cell-based, U-87MG ATCC. In general terms: Tetrazolium assays rely on reduction of a dye to a coloured formazan, in cell work by metabolically active cells.
Test [6] concerns SK-OV-3. Kind of test: Antiproliferative activity against human SK-OV-3 cells assessed as suppression ratio at 5 uM by enzyme-linked immunosorbent assay relative to control. Type of test: functional.
For test [7], the system named is SK-OV-3. Kind of test: Antiproliferative activity against human SK-OV-3 cells assessed as suppression ratio at 50 uM by enzyme-linked immunosorbent assay relative to control. Type of test: functional.
The subject of test [8] is SK-OV-3. The experiment in a line: Anti-tumor activity against human SK-OV-3 cells by CCK-8 assay. The class given is functional, cell-based.

What is called inhibition is the change of the read-out against control, counted positive when it falls. The IC50 is the concentration that gives 50% inhibition. A lower IC50 goes with greater potency. Turning to `CC(C)n1cc(COP(=O)(NCCBr)NCCBr)nc1[N+](=O)[O-]`, the inhibition at 50 µM in the test with U-87 MG [1] and in the test on SK-OV-3 [7] was 68% each time. For the same molecule, the inhibition at 140 µM in the test on U-87 MG [2] and in the test with SK-OV-3 [4] was 90% each time. The inhibition at 5 µM in the test with U-87 MG [3] was 30%; with SK-OV-3 [6], -16%. Also, the figures for the IC50 with U-87 MG [5] and in the test on SK-OV-3 [8] were 41 µM and 32 µM, respectively.
With `CC(C)n1cnc([N+](=O)[O-])c1COP(=O)(NCCCl)NCCCl`, the values for the inhibition at 50 µM in the test with U-87 MG [1] and in the test on SK-OV-3 [7] were 10% and 16%, respectively. Also, the results for the inhibition at 5 µM with U-87 MG [3] and with SK-OV-3 [6] were 12% and 11%, respectively.
In the same order, the values of `CCn1cc(COP(=O)(NCCBr)NCCBr)nc1[N+](=O)[O-]` are 43%, 32%, 25% and -3%.
On the same counts, the results for `CC(C)n1c(COP(=O)(NCCBr)NCCBr)cnc1[N+](=O)[O-]` are 23%, 10%, 24% and -15%.
With `CCn1cnc([N+](=O)[O-])c1COP(=O)(NCCBr)NCCBr`, the inhibition at 50 µM is 39% with U-87 MG [1] and 59% with SK-OV-3 [7]. For the same molecule, the inhibition at 5 µM in the test with U-87 MG [3] is -3%; with SK-OV-3 [6] it was -11%.
In the same order, the values of `Cn1cc(COP(=O)(NCCBr)NCCBr)nc1[N+](=O)[O-]` are 32%, 48%, 16% and -14%.
In the case of `CCCn1c(COP(=O)(NCCBr)NCCBr)cnc1[N+](=O)[O-]`, the inhibition at 50 µM in the test with U-87 MG [1] came out at 69%; in the test on SK-OV-3 [7] it was 77%. Moreover, the inhibition at 140 µM in the test on U-87 MG [2] and in the test with SK-OV-3 [4] was 90% throughout. Also, the inhibition at 5 µM is 30% with U-87 MG [3] and -2% in the test on SK-OV-3 [6]. Further, the IC50 was found to be 47 µM in the test with U-87 MG [5] and 42 µM in the test on SK-OV-3 [8].
For `Cn1c(COP(=O)(NCCBr)NCCBr)cnc1[N+](=O)[O-]` [EVOFOSFAMIDE], the inhibition at 50 µM in the test on U-87 MG [1] worked out at 68%; with SK-OV-3 [7], 65%. Besides, the inhibition at 5 µM is 9% with U-87 MG [3] and 10% with SK-OV-3 [6]. Moreover, the IC50 in the test on U-87 MG [5] was found to be 61 µM; in the test with SK-OV-3 [8] it was 62 µM.
As to `CCCn1cnc([N+](=O)[O-])c1COP(=O)(NCCCl)NCCCl`, the results for the inhibition at 50 µM in the test with U-87 MG [1] and with SK-OV-3 [7] were 15% and 8%, respectively. In addition, the inhibition at 5 µM with U-87 MG [3] was 5%; with SK-OV-3 [6], -5%.
In the same order, the values of `CC(C)n1cnc([N+](=O)[O-])c1COP(=O)(NCCBr)NCCBr` are 47%, 41%, 16% and 4%.
On the same counts, the results for `CCCn1cc(COP(=O)(NCCBr)NCCBr)nc1[N+](=O)[O-]` are 35%, 20%, 21% and -32%.
Take `CCn1c(COP(=O)(NCCBr)NCCBr)cnc1[N+](=O)[O-]`: the inhibition at 50 µM with U-87 MG [1] was determined as 31%; in the test with SK-OV-3 [7] it was 20%. Moreover, the figures for the inhibition at 5 µM in the test on U-87 MG [3] and in the test on SK-OV-3 [6] were 25% and -13%, respectively.
On the same counts, the results for `CCCn1cnc([N+](=O)[O-])c1COP(=O)(NCCBr)NCCBr` are 45%, 52%, -3% and 3%.
In the same order, the values of `CCn1cnc([N+](=O)[O-])c1COP(=O)(NCCCl)NCCCl` are 11%, -2%, 1% and -16%.
In the same order, the values of `Cn1cnc([N+](=O)[O-])c1COP(=O)(NCCCl)NCCCl` are 22%, 4%, 13% and -38%.
For the molecule `Cn1cnc([N+](=O)[O-])c1COP(=O)(NCCBr)NCCBr`, the inhibition at 50 µM with U-87 MG [1] came out at 55%; with SK-OV-3 [7], 66%. Moreover, the inhibition at 5 µM in the test on U-87 MG [3] was 17%; in the test on SK-OV-3 [6], -4%. The figures for the half-maximal inhibitory concentration (IC50) in the test with U-87 MG [5] and with SK-OV-3 [8] were 98 µM and 74 µM, respectively.
